Source: patent US9658218B2, “Determination of total analyte concentration” (Siemens Healthcare Diagnostics Inc., priority 2012, dated 2017)

Tests used:
[1] = ACMIA assay for tacrolimus on unknown samples known to contain endogeneous interfering substances; settings: for Estimated True: [Y]+[Z]; for Free drug: [Z]=0.218[Y]+0.0981
Description: Testing is carried out using the DIMENSION® RxL analyzer, available from Siemens Healthcare Diagnostics Inc., Newark Del. The instrument is employed using ACMIA immunoassay technology. The ACMIA assay method is described in U.S. Pat. Nos. 7,186,518, 5,147,529, 5,128,103, 5,158,871, 4,661,408, 5,151,348, 5,302,532, 5,422,284, 5,447,870, and 5,434,051, the disclosures of which are incorporated herein in their entirety. In the embodiment of the ACMIA method used herein and discussed in more detail below, competition between tacrolimus analog on chrome particles and tacrolimus in patient samples for antibody for tacrolimus conjugated to an enzyme (the “conjugate”) is utilized to determine the amount of tacrolimus in patient samples. Conjugate that binds to the tacrolimus analog on chrome particles is removed by magnetic separation. The enzymatic activity from conjugate remaining in the supernatant is measured and is directly proportional to the amount of tacrolimus in the patient sample. In the ACMIA assay format employed, the enzymatic activity observed when testing a sample containing no tacrolimus is indicative of the amount of enzymatic activity that is not bound to active antibody (i.e., cannot bind tacrolimus on chrome particles). The enzymatic activity observed when no chrome particle is present is indicative of the total amount of enzymatic activity in the conjugate. These values can be used to estimate the percent of enzymatic activity bound to active antibody. The ACMIA assay for tacrolimus is as follows: 15 μL of a whole blood samples I-V from above (substantially free from endogeneous interfering substances and spiked with tacrolimus) is mixed with the SIRO displacement solution (Table 1) in a vessel on the DIMENSION® RxL analyzer. The whole blood is sampled from a standard cup by first mixing the blood with the ultrasonic sample probe. The mixing of whole blood sample with the SIRO displacement solution ensures the displacement of the bound tacrolimus molecules from their binding sites when the SIRO molecules are present. As a result, the signal generated from this assay is related to the amount of free tacrolimus analyte plus the amount of displaced tacrolimus analyte (bound analyte) in the sample. Anti-tacrolimus antibody-β-galactosidase conjugate (50 μL) is added next to each of the reaction vessels and the mixture is held for a period of time (10 to 15 minutes) and at a temperature of 43° C. to allow tacrolimus, if present, to react with the antibody reagent. Chrome particles with immobilized tacrolimus-CM0-DA10-Dexal are added (50 μL) to each of the reaction vessels and are allowed to bind un-bound conjugate. […] The tacrolimus-bound conjugate is detected by transferring the supernatant from each of the reaction vessels to a photometric cuvette and measuring the enzymatic rate of the conjugate in the presence of chlorophenol red-β-D-galactopyranoside (CPRG). The rate for each reaction vessel is measured bichromatically at 577 and 700 nm. The above ACMIA assay is then carried out on unknown samples known to contain endogeneous interfering substances. Samples are obtained from various hospitals and are identified as set forth in first column of Table 3 below. The concentration of bound tacrolimus [Y] is determined as described above. The equation [Z]=0.218[Y]+0.0981 with the values for “a” and “b” determined as discussed above for this ACMIA assay is used to determine a concentration of free tacrolimus [Z] in the samples. The estimated true total concentration of tacrolimus [X] in each sample is determined by adding [Y]+[Z].

[2] = system: endogeneous binding proteins; experiment: ACMIA assay for tacrolimus on spiked whole blood samples with and without SIRO displacing agent (free vs bound tacrolimus); format: in vitro ADME; settings: for Protein-Bound: +SIRO minus −SIRO; for +SIRO ng/mL (free plus bound tacrolimus): with SIRO displacer
Description: Testing is carried out using the DIMENSION® RxL analyzer, available from Siemens Healthcare Diagnostics Inc., Newark Del. The instrument is employed using ACMIA immunoassay technology. The ACMIA assay method is described in U.S. Pat. Nos. 7,186,518, 5,147,529, 5,128,103, 5,158,871, 4,661,408, 5,151,348, 5,302,532, 5,422,284, 5,447,870, and 5,434,051, the disclosures of which are incorporated herein in their entirety. In the embodiment of the ACMIA method used herein and discussed in more detail below, competition between tacrolimus analog on chrome particles and tacrolimus in patient samples for antibody for tacrolimus conjugated to an enzyme (the “conjugate”) is utilized to determine the amount of tacrolimus in patient samples. Conjugate that binds to the tacrolimus analog on chrome particles is removed by magnetic separation. The enzymatic activity from conjugate remaining in the supernatant is measured and is directly proportional to the amount of tacrolimus in the patient sample. In the ACMIA assay format employed, the enzymatic activity observed when testing a sample containing no tacrolimus is indicative of the amount of enzymatic activity that is not bound to active antibody (i.e., cannot bind tacrolimus on chrome particles). The enzymatic activity observed when no chrome particle is present is indicative of the total amount of enzymatic activity in the conjugate. These values can be used to estimate the percent of enzymatic activity bound to active antibody.
Tacrolimus-free whole blood pools are screened by running the above mentioned ACMIA assay to identify whole blood pools that are substantially free from endogenous interfering substances. The screening is carried out by examining the consistency of tacrolimus recoveries of the pools to the individual tacrolimus-free whole blood samples. If the recoveries of the majority of the tacrolimus-free whole blood samples are within the low end sensitivity of the assay when the pool is used as the tacrolimus-free calibrator, the pool is accepted as a matrix free from endogenous interfering substances. The pool is then used to make the tacrolimus calibrators (or standards) by spiking different amounts of pure tacrolimus into the pool. The calibrators (which are substantially free from endogenous interfering substances) are then employed to generated the relationship of [Z]=a[Y]+b during the method calibration, which is achieved by testing the calibrators in the presence and absence of a displacing agent (sirolimus). Both [Z] and [Y] are generated from the calibration. The [Z] values of the calibrators are generated by running the calibrators in the absence of the displacing agent (representing the free drug) and the [Y] values of the calibrators are generated by subtracting the [Z] value from the total drug measured in the presence of the displacing agent (representing the bound drug). Calibrators made from a whole blood pool that is substantially free from endogeneous interfering substances are selected for use in the experiments below.
The whole blood pool substantially free from endogeneous interfering substances identified above is used. Aliquots (100 mL) of the whole blood pool are spiked with various amounts of tacrolimus so that the resulting concentration of tacrolimus in the whole blood samples is 0, 2.8, 6.0, 11.9 and 31.3 ng/mL (samples I-V).
A set of samples I-V is treated as follows: To each sample is added a sirolimus (SIRO) displacing agent for displacing tacrolimus in the sample from endogeneous binding proteins. The formulation for the SIRO displacement solution is set forth in more detail in Table 1.
The samples are incubated at 37° C. for a period of 140 minutes in the presence of displacing agent to displace tacrolimus from endogeneous binding substances. […]

[3] = ACMIA assay for tacrolimus on unknown samples known to contain endogeneous interfering substances
[4] = system: endogeneous binding proteins; experiment: ACMIA assay for tacrolimus on spiked whole blood samples with and without SIRO displacing agent (free vs bound tacrolimus); format: in vitro ADME; settings: without SIRO

For `C=CC[C@@H]1/C=C(\C)C[C@H](C)C[C@H](OC)[C@H]2O[C@@](O)(C(=O)C(=O)N3CCCC[C@H]3C(=O)O[C@H](/C(C)=C/[C@@H]3CC[C@@H](O)[C@H](OC)C3)[C@H](C)[C@@H](O)CC1=O)[C@H](C)C[C@@H]2OC` [tacrolimus], which Bound drug ([1]; sample 09-238-057) is on record?
The Bound drug was 0.0 ng/mL.

And the “ng/mL + displacer” value ([1]; sample 09-238-057)?
Its value is 32.7 ng/mL.

And the “ng/mL − displacer” value ([1]; sample 09-238-057)?
Its value is 36.1 ng/mL.

And the “Estimated True” value ([1]; sample 09-238-057)?
The value was 0.0 ng/mL.

What about the Free drug ([1]; sample 09-238-057) of the same molecule?
Its Free drug is 0.0 ng/mL.

And the Bound drug ([1]; sample 109)?
Its Bound drug is 0.0 ng/mL.

What about the “ng/mL + displacer” value ([1]; sample 109) of the same molecule?
Its value is 16.4 ng/mL.

And the “ng/mL − displacer” value ([1]; sample 109)?
The value was 21.3 ng/mL.

What about the “Estimated True” value ([1]; sample 109) of the same molecule?
The value was 0.0 ng/mL.

And the Free drug ([1]; sample 109)?
Its Free drug is 0.0 ng/mL.

What about the Bound drug ([1]; sample 864408) of the same molecule?
Its Bound drug is 2.3 ng/mL.

What about the “ng/mL + displacer” value ([1]; sample 864408) of the same molecule?
The value was 27.7 ng/mL.

And the “Estimated True” value ([1]; sample 864408)?
Its value is 2.9 ng/mL.

What about the Free drug ([1]; sample 864408) of the same molecule?
Its Free drug is 0.6 ng/mL.

What about the Bound drug ([1]; sample Dussel) of the same molecule?
The Bound drug was 2.3 ng/mL.

What about the “ng/mL + displacer” value ([1]; sample Dussel) of the same molecule?
The value was 14.4 ng/mL.

What about the “Estimated True” value ([1]; sample Dussel) of the same molecule?
The value was 2.9 ng/mL.

What about the Free drug ([1]; sample Dussel) of the same molecule?
The Free drug was 0.6 ng/mL.

What about the Bound drug ([1]; sample FP15) of the same molecule?
Its Bound drug is 7.1 ng/mL.

And the “ng/mL + displacer” value ([1]; sample FP15)?
Its value is 10.9 ng/mL.

And the “Estimated True” value ([1]; sample FP15)?
Its value is 8.7 ng/mL.

What about the Free drug ([1]; sample FP15) of the same molecule?
The Free drug was 1.6 ng/mL.

What about the “Protein-Bound” value ([2]; BV 2.8 ng/mL) of the same molecule?
Its value is 2.1 ng/mL.

What about the “+SIRO ng/mL (free plus bound tacrolimus)” value ([2]; BV 2.8 ng/mL) of the same molecule?
The value was 2.8 ng/mL.

And the “Protein-Bound” value ([2]; BV 6.0 ng/mL)?
Its value is 4.9 ng/mL.

What about the “+SIRO ng/mL (free plus bound tacrolimus)” value ([2]; BV 6.0 ng/mL) of the same molecule?
The value was 6.0 ng/mL.

And the “Protein-Bound” value ([2]; BV 11.9 ng/mL)?
The value was 9.7 ng/mL.

And the “+SIRO ng/mL (free plus bound tacrolimus)” value ([2]; BV 11.9 ng/mL)?
The value was 11.9 ng/mL.

What about the “Protein-Bound” value ([2]; BV 31.3 ng/mL) of the same molecule?
Its value is 25.6 ng/mL.

What about the “+SIRO ng/mL (free plus bound tacrolimus)” value ([2]; BV 31.3 ng/mL) of the same molecule?
The value was 31.3 ng/mL.

And the “ng/mL − displacer” value ([3]; sample 864408)?
The value was 25.4 ng/mL.

And the “ng/mL − displacer” value ([3]; sample Dussel)?
Its value is 12.2 ng/mL.

What about the “ng/mL − displacer” value ([3]; sample FP15) of the same molecule?
Its value is 3.8 ng/mL.

And the “−SIRO ng/mL (free tacrolimus)” value ([4]; BV 2.8 ng/mL)?
The value was 0.7 ng/mL.

What about the “−SIRO ng/mL (free tacrolimus)” value ([4]; BV 6.0 ng/mL) of the same molecule?
Its value is 1.2 ng/mL.

What about the “−SIRO ng/mL (free tacrolimus)” value ([4]; BV 11.9 ng/mL) of the same molecule?
Its value is 2.2 ng/mL.

What about the “−SIRO ng/mL (free tacrolimus)” value ([4]; BV 31.3 ng/mL) of the same molecule?
The value was 5.7 ng/mL.
